From article PMC6587524 (Journal of Clinical Pharmacology, 2018)
Read-outs that look alike come from different tables or passages of the source.

Key:
[1] = format: in vivo, healthy female subjects; set-up: AUC0-t, Central Value, Test / AUC0-t, Central Value, Reference / AUCinf, Central Value, Test / AUCinf, Central Value, Reference: unit not given beside the values; details: for Bioequivalence in the presence and absence of upadacitinib: 90% CIs of Cmax and AUC ratios within 0.8 to 1.25; for Tmax: median (minimum to maximum); for AUC(0-inf): AUCinf; for half-life: t1/2 (terminal half-life), harmonic mean (pseudo-standard deviation)
[2] = cited from earlier work
[3] = system: JAK1; details: cited from earlier work
[4] = Safety assessment during the study; format: in vivo, healthy female subjects; details: period 2
[5] = system: other JAK isoforms; details: relative to JAK1; cited from earlier work
[6] = system: cytochrome P450 (CYP) 3A; details: coadministration following multiple doses of ketoconazole; cited from earlier work
[7] = ethinylestradiol/levonorgestrel 0.03/0.15 mg with upadacitinib 30 mg QD, period 2, N = 20
[8] = ethinylestradiol/levonorgestrel 0.03/0.15 mg alone, period 1 day 1, N = 22, mean ± SD
[9] = ethinylestradiol/levonorgestrel 0.03/0.15 mg with upadacitinib 30 mg QD, period 2, N = 20, mean ± SD
[10] = period 1, day 1 (oral contraceptive alone), repeated measures analysis
[11] = period 2, day 12 (with upadacitinib 30 mg QD), repeated measures analysis

SMILES: C#C[C@]1(O)CC[C@H]2[C@@H]3CCc4cc(O)ccc4[C@H]3CC[C@@]21C [Ethinylestradiol]
- Bioequivalence in the presence and absence of upadacitinib [1]: bioequivalent
- Tmax [1, 7]: 1.5 (1.0–3.0) h
- AUC(0-t) ([1]; female, human, plasma, po, AUC0-t, Central Value, Test, period 2, day 12 (with upadacitinib 30 mg QD), repeated measures analysis): 0.39 ng·h/mL
- AUC(0-t) ([1]; female, human, plasma, po, AUC0-t, ethinylestradiol/levonorgestrel 0.03/0.15 mg alone, period 1 day 1, N = 22, mean ± SD): 0.378 ± 0.154 ng·h/mL
- AUC(0-t) ([1]; female, human, plasma, po, AUC0-t, ethinylestradiol/levonorgestrel 0.03/0.15 mg with upadacitinib 30 mg QD, period 2, N = 20, mean ± SD): 0.426 ± 0.137 ng·h/mL
- AUC(0-inf) ([1]; female, human, plasma, po, Central Value, Test, period 2, day 12 (with upadacitinib 30 mg QD), repeated measures analysis): 0.445 ng·h/mL
- AUC(0-inf) ([1]; female, human, plasma, po, ethinylestradiol/levonorgestrel 0.03/0.15 mg alone, period 1 day 1, N = 22, mean ± SD): 0.441 ± 0.193 ng·h/mL
- half-life ([1]; female, human, plasma, po, ethinylestradiol/levonorgestrel 0.03/0.15 mg alone, period 1 day 1, N = 22): 7 h
- half-life ([1]; female, human, plasma, po, ethinylestradiol/levonorgestrel 0.03/0.15 mg with upadacitinib 30 mg QD, period 2, N = 20): 7.7 h

SMILES: C#C[C@]1(O)CC[C@H]2[C@@H]3CCC4=CC(=O)CC[C@@H]4[C@H]3CC[C@@]21CC [Levonorgestrel]
- Bioequivalence in the presence and absence of upadacitinib [1]: bioequivalent
- AUC(0-t) [1, 8]: 43.0 ± 18.4 ng·h/mL
- AUCinf [1, 8]: 51.7 ± 22.0 ng·h/mL
- Cmax [1, 8]: 3.9 ± 1.4 ng/mL
- Tmax ([1]; ethinylestradiol/levonorgestrel 0.03/0.15 mg alone, period 1 day 1, N = 22): 0.8 (0.5–2.0) h
- AUC(0-t) [1, 9]: 38.7 ± 12.1 ng·h/mL
- AUCinf [1, 9]: 49.5 ± 20.4 ng·h/mL
- Cmax [1, 9]: 3.7 ± 1.15 ng/mL
- Tmax [1, 7]: 0.8 (0.5–2.0) h
- AUC0-t, Central Value, Reference [1, 10]: 39.6
- AUCinf, Central Value, Reference [1, 10]: 47.6
- AUC0-t, Central Value, Test [1, 11]: 36.3
- AUCinf, Central Value, Test [1, 11]: 45.5

SMILES: CC[C@@H]1CN(C(=O)NCC(F)(F)F)C[C@@H]1c1cnc2cnc3[nH]ccc3n12 [Upadacitinib]
- effect of upadacitinib on the exposures of ethinylestradiol or levonorgestrel ([1]; upadacitinib 30 mg QD repeated doses): no effect
- accumulation upon multiple QD dosing ([2]; extended-release formulation): No significant accumulation
- administered dose eliminated in urine and feces as unchanged upadacitinib ([2]; in vivo): > 60%
- time to steady state ([2]; multiple QD dosing, extended-release formulation): ≤ 4 days
- JAK1 inhibition [3]: potently inhibits JAK1
- relation of treatment-emergent adverse events to upadacitinib [4]: not considered to have a reasonable possibility of being related
- potency against the other JAK isoforms [5]: less potent
- increase in upadacitinib AUC [6]: 75%
- increase in upadacitinib Cmax [6]: 70%
